Tests used:
ABCG2/BCRP [1] = biological target: T1, ABCG2/BCRP (Homo sapiens, UniProt Q9UNQ0); test: in vitro; conditions: for IC50 at 10 min: human
T1 sequence (Q9UNQ0 1-655): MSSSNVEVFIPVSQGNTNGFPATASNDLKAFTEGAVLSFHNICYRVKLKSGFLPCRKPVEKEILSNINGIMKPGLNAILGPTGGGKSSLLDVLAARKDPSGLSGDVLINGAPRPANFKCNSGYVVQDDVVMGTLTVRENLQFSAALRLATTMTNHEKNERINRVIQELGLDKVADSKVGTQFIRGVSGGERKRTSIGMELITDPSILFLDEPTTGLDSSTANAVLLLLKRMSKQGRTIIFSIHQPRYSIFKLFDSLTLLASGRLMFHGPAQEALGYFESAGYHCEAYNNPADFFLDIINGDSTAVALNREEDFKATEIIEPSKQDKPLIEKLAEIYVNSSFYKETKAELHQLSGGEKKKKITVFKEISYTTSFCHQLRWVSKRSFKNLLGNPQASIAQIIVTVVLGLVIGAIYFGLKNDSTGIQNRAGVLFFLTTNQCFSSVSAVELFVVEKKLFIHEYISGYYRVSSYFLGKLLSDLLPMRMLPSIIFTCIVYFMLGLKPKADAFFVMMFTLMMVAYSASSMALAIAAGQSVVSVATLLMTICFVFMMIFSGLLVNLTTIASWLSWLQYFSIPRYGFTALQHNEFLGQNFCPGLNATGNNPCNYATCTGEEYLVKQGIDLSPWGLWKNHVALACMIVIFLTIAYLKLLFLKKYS
Description: These were employed at 37 °C for 10 min (ABCG2), 1 min (ABCB1), or 3 min (ABCC1), with or without 4 mM Mg-ATP, in a 50 μL final volume. The known reference inhibitors of the transporters (1 µM Ko143 for ABCG2, 1 µM Valspodar for ABCB1, and 200 µM Benzbromarone for ABCC1) served as controls. Each test compound was dissolved in DMSO and a 1 µL volume was added to the samples. After incubation, the samples were filtered and washed, and the substrates in the vesicles were dissolved in 10% SDS and transferred onto another plate. After the addition of a stabilizer, the fluorescence was measured in plate readers (Victor X3 and Enspire Perkin-Elmer, Waltham, MA, USA), while the activity of the radiolabeled substrate was measured by liquid scintillation counting (Perkin Elmer MicroBeta2 liquid scintillation counter, Perkin Elmer, Waltham, MA, USA). ABC transporter-related vesicular transport was calculated by subtracting uptake measured in the presence of Mg-AMP from the values measured in the presence of Mg-ATP.
The effects of the test compounds on ABCG2 activity were also measured in a vesicular transport assay by using inverted membrane vesicles prepared from HEK-293 cells expressing high levels of the ABCG2 transporter.

ABCB1/MDR1/Pgp [2] = biological target: T2, ABCB1/MDR1/Pgp (Homo sapiens, UniProt P08183); test: in vitro; conditions: for Effect on ABCB1-dependent CaAM extrusion (in words): PLB-985/ABCB1 cells, test compounds 0.2–50 µM; for IC50 at 40 min: human
Description: (§1) For the ABC transporter assays, we used both cell-based and membrane-based functional assays. […] The respective transport activities were assayed by measuring the cellular fluorescence of the respective transported substrates Phengreen (ABCG2) and Calcein (ABCB1 and ABCC1).
(§2) The cells were kept on ice until the flow cytometry measurements. All experiments were performed in triplicate and in at least three biological parallels.
(§3) The cells were kept on ice until the flow cytometry measurements. All experiments were performed in triplicate and in at least three biological parallels. […] The PhenGreen (PG) or Calcein signal was detected in the BL1 channel (emission filter: 530/30 nm). Analysis of the data was carried out by the Attune Nxt Cytometer Software v3.1.2 (Thermo Fischer Scientific, Waltham, MA, USA). The inhibition of transporter activity was calculated by comparing the fluorescence in the presence of the test compound to that in the presence of a specific inhibitor providing maximum inhibition. […] Half-maximum inhibition (IC50) values were calculated by using the Origin2019 software (9.6.5.169, OriginLab Corporation, Northampton, MA, USA). […] In these experiments, we measured Hoechst dye extrusion in HeLa cells stably expressing eGFP and the ABCG2 variants driven by the same promoter—the transgenic cells generated by the Sleeping Beauty transposon system. […] For details, see Zámbó et al.). […] The maximum inhibition was defined for each variant as the fluorescence difference of the samples incubated with and without Ko143, respectively. […] Data analysis was performed using the Attune Nxt Cytometer Software v3.1.2. Two samples per condition and three biological replicates were examined in each experiment.
ABCB1 is a high-affinity active efflux transporter of the viability dye Calcein-AM (CaAM). […] Here, we applied this widely used cellular assay (see https://www.solvobiotech.com/services/categories/dye-efflux-assays) to characterize drug interactions of the applied compounds in intact PLB-985 cells, expressing high levels of the ABCB1 protein.

ABCC1/MRP1 [3] = biological target: T3, ABCC1/MRP1 (Homo sapiens, UniProt P33527); conditions: Sf9/ABCC1 membrane vesicles
ABCC1/MRP1 [4] = biological target: T3, ABCC1/MRP1; test: in vitro; conditions: for Effect on ABCC1-dependent CaAM extrusion (in words): HL60/ABCC1 cells; for IC50 at 40 min: human
Description: as §1, §2, §3
Therefore, we applied this assay to characterize the test drug interactions in intact HL60 cells expressing high levels of the ABCC1 protein.

ABCB1/MDR1/Pgp [5] = biological target: T2, ABCB1/MDR1/Pgp; conditions: HEK-293/ABCB1 membrane vesicles
ABCG2/BCRP [6] = biological target: T1, ABCG2/BCRP; test: in vitro; conditions: for Effect on ABCG2-dependent PG-DA extrusion (in words): PLB-985/ABCG2 cells; for IC50 at 40 min: human
Description: as §1, §3
Here, we used both PhenGreen-SK diacetate and Hst dye for these measurements. The PhenGreen (PG) assay is a recently patented method applied for ensuring an efficient ABCG2 transport measurement, as the non-fluorescent PhenGreen diacetate (PG-DA) is actively extruded by ABCG2 and the cellular fluorescence is correlated with ABCG2 transport activity. Therefore, we applied this assay to characterize the test drug interactions in intact PLB-985 cells expressing high levels of the ABCG2 protein. […] ABCG2 inhibition by the test compounds was estimated by their relative (%) inhibition compared to full inhibition by Ko143.

T2 sequence (P08183 whole entry): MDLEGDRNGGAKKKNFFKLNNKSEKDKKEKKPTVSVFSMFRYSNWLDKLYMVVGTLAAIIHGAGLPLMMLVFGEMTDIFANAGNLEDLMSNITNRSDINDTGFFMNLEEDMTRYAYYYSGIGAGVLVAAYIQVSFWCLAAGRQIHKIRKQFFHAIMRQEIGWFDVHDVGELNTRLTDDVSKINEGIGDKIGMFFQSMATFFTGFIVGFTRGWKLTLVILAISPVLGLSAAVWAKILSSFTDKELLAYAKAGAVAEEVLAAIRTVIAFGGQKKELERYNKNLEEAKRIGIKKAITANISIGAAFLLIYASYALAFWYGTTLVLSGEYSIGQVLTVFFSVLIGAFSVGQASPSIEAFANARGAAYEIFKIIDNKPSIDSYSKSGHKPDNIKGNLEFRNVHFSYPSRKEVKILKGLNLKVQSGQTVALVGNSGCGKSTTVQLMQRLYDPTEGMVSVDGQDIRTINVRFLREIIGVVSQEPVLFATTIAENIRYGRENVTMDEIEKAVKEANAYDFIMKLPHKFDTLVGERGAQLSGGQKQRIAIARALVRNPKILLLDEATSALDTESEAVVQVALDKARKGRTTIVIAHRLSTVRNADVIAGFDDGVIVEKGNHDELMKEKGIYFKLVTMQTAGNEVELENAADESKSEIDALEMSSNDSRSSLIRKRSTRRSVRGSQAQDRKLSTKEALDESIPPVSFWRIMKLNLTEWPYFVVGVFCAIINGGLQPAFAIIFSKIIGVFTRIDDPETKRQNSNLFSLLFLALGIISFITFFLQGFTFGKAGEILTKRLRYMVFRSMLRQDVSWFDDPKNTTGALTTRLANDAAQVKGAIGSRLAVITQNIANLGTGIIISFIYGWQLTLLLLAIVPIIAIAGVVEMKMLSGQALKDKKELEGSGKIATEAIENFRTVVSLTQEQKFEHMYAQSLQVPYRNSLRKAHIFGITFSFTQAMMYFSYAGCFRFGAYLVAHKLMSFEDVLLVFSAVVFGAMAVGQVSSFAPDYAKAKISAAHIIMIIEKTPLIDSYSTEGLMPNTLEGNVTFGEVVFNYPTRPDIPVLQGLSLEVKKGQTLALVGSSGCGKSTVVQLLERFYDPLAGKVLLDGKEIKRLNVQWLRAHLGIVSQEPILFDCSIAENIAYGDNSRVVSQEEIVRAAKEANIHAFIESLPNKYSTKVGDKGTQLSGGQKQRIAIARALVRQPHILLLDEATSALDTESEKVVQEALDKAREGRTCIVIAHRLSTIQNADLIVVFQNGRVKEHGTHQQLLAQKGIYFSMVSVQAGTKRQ
T3 sequence (P33527 whole entry): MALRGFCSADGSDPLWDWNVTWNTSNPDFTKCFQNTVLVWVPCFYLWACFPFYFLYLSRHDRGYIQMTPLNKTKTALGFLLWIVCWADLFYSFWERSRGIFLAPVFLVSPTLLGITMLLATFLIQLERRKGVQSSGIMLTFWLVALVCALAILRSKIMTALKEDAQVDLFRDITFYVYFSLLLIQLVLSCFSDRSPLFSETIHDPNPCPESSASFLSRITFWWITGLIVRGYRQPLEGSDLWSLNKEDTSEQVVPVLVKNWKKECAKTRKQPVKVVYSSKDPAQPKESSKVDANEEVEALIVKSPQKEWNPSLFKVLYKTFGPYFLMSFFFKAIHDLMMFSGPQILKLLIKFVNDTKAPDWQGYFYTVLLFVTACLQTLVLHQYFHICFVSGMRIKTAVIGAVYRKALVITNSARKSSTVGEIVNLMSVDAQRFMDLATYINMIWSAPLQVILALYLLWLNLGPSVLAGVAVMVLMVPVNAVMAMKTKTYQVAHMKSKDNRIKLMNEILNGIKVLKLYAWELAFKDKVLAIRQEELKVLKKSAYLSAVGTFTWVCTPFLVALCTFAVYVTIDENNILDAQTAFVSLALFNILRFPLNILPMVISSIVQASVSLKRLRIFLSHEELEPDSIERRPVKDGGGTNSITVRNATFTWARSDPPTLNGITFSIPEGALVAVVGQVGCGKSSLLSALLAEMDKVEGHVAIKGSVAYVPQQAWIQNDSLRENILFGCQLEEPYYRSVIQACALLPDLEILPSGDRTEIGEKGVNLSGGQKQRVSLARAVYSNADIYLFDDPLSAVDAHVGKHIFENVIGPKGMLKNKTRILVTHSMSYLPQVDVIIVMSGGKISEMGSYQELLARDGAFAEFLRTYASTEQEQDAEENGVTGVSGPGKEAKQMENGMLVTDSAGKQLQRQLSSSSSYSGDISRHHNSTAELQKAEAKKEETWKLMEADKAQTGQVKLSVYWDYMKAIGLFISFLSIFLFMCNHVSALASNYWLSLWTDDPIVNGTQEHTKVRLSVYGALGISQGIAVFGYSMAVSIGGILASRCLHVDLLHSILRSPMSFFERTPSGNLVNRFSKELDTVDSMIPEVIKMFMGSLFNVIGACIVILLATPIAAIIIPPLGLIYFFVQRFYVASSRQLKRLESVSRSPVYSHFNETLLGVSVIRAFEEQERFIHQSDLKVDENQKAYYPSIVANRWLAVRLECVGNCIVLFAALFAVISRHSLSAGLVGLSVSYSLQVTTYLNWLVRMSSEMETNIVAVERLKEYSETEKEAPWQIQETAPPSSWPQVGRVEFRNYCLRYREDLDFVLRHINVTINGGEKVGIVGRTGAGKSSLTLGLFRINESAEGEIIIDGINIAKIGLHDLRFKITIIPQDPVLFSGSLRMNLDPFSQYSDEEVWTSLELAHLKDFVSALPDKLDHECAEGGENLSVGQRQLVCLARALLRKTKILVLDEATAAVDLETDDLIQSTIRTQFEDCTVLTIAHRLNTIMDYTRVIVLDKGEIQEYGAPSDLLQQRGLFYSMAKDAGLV

| Compound | IC50 at 10 min (ABCG2/BCRP [1]; probe lucifer yellow, 5 µM) | Effect on ABCB1-dependent CaAM extrusion (in words) (ABCB1/MDR1/Pgp [2]) | IC50 at 40 min (ABCB1/MDR1/Pgp [2]; intact PLB-985 cells expressing ABCB1, probe Calcein-AM, 0.25 µM) | Effect on ABCC1 vesicular ETGB transport (in words) (ABCC1/MRP1 [3]) | Effect on ABCC1-dependent CaAM extrusion (in words) (ABCC1/MRP1 [4]) | IC50 at 40 min (ABCC1/MRP1 [4]; intact HL60 cells expressing ABCC1, probe Calcein-AM, 0.25 µM) | Effect on ABCB1 ATP-dependent NMQ uptake (in words) (ABCB1/MDR1/Pgp [5]) | Effect on ABCG2-dependent PG-DA extrusion (in words) (ABCG2/BCRP [6]) | IC50 at 40 min (ABCG2/BCRP [6]; intact PLB-985 cells expressing ABCG2, probe PhenGreen-SK diacetate, 0.25 µM) | IC50 (ABCG2/BCRP [1]) | IC50 at 10 min (ABCG2/BCRP [1]) | IC50 at 40 min (ABCB1/MDR1/Pgp [2]) | Concentration above which ABCC1 vesicular ETGB transport was stimulated (ABCC1/MRP1 [3]) | IC50 at 40 min (ABCG2/BCRP [6]) | Effect on ABCG2 ATP-dependent LY uptake (in words) (ABCG2/BCRP [1]; HEK-293/ABCG2 membrane vesicles) | IC50 at 40 min (ABCC1/MRP1 [4]) |
| --- | --- | --- | --- | --- | --- | --- | --- | --- | --- | --- | --- | --- | --- | --- | --- | --- |
| NC(=O)c1nc(F)c[nH]c1=O [favipiravir] | > 50 µM | did not significantly inhibit | > 50 µM | practically no effect | did not significantly inhibit | > 50 µM | no inhibitory effect | practically no effect | > 50 µM |  |  |  |  |  |  |  |
| CCC(CC)COC(=O)[C@H](C)N[P@](=O)(OC[C@H]1O[C@@](C#N)(c2ccc3c(N)ncnn23)[C@H](O)[C@@H]1O)Oc1ccccc1 [remdesivir] |  | did not significantly inhibit |  | significantly stimulated | did not significantly inhibit |  |  |  |  | > 20 µM | > 50 µM | > 50 µM | above 25 μM | > 50 µM |  |  |
| CCN(CCO)CCCC(C)Nc1ccnc2cc(Cl)ccc12 (stereo not drawn) [hydroxychloroquine] |  | practically no effect |  | practically no effect | practically no effect |  | practically no effect | practically no effect |  |  | > 50 µM | > 50 µM |  | > 50 µM | practically no effect | > 50 µM |
